Data taken from patent US11111233B2, “Amino pyrimidine compound for inhibiting protein tyrosine kinase activity” (Shenzhen TargetRx, Inc., priority 2016, dated 2021).
Read-outs that look alike come from different tables or passages of the source.

Key:
WT EGFR = WT EGFR (Homo sapiens (Human), UniProt P00533); experiment: Kinase inhibition assay (HTRF), WT EGFR; assay type: biochemical
EGFR [L858R/T790M] = EGFR [L858R/T790M] (Homo sapiens (Human), UniProt P00533, L858R/T790M); experiment: Kinase inhibition assay (HTRF), EGFR [L858R/T790M]; assay type: biochemical
[1] = test system: Skin cancer cell line A431 (WT); experiment: Cytotoxicity test (MTS cell viability), A431; assay type: cell-based; conditions: Homo sapiens
[2] = test system: lung cancer cells HCC827 (Del19); experiment: Cytotoxicity test (MTS cell viability), HCC827; assay type: cell-based; conditions: Homo sapiens
[3] = HTRF Kinase TK kit, 10 min pre-incubation, 20 min reaction
[4] = HTRF Kinase TK kit, 10 min pre-incubation, 20 min reaction, read-out: EGFR(L858R/T790M) IC50
[5] = A-431, MTS, 72 hours, read-out: A431 (WT) IC50
[6] = HCC827, MTS, 72 hours, read-out: HCC827 (Del19) IC50
[7] = HCC827, 72 h, read-out: HCC827 (Del19) IC50(nM)

WT EGFR, sequence (P00533 25-1210): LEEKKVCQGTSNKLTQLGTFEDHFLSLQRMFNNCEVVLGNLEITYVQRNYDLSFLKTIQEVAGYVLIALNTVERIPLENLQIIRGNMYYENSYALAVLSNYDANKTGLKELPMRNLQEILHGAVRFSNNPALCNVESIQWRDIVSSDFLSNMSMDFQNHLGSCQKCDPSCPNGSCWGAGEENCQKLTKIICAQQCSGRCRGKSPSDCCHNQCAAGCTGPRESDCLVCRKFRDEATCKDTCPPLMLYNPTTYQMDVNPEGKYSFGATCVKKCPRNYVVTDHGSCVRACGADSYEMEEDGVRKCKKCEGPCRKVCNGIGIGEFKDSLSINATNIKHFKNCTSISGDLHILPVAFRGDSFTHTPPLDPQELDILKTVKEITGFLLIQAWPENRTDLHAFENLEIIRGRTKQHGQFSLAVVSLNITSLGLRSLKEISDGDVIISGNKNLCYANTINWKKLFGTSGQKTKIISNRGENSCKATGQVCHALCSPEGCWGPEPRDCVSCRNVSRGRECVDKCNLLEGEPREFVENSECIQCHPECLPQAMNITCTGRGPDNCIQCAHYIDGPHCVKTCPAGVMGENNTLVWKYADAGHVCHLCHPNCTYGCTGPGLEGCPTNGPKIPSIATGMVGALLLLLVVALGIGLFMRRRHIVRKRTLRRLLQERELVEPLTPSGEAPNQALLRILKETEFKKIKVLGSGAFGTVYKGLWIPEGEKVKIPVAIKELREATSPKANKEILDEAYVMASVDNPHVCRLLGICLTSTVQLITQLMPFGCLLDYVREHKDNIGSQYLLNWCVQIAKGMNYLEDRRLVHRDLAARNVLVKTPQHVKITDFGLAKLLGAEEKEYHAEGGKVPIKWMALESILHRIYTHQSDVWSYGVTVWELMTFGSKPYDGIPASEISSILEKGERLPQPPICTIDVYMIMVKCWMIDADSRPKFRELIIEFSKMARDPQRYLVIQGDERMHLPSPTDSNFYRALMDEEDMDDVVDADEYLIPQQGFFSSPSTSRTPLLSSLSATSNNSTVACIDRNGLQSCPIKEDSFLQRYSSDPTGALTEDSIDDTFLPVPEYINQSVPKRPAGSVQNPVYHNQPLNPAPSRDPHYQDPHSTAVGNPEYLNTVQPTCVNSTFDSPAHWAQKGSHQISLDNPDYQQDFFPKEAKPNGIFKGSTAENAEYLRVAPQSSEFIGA
EGFR [L858R/T790M], sequence (P00533 25-1210 T790M/L858R): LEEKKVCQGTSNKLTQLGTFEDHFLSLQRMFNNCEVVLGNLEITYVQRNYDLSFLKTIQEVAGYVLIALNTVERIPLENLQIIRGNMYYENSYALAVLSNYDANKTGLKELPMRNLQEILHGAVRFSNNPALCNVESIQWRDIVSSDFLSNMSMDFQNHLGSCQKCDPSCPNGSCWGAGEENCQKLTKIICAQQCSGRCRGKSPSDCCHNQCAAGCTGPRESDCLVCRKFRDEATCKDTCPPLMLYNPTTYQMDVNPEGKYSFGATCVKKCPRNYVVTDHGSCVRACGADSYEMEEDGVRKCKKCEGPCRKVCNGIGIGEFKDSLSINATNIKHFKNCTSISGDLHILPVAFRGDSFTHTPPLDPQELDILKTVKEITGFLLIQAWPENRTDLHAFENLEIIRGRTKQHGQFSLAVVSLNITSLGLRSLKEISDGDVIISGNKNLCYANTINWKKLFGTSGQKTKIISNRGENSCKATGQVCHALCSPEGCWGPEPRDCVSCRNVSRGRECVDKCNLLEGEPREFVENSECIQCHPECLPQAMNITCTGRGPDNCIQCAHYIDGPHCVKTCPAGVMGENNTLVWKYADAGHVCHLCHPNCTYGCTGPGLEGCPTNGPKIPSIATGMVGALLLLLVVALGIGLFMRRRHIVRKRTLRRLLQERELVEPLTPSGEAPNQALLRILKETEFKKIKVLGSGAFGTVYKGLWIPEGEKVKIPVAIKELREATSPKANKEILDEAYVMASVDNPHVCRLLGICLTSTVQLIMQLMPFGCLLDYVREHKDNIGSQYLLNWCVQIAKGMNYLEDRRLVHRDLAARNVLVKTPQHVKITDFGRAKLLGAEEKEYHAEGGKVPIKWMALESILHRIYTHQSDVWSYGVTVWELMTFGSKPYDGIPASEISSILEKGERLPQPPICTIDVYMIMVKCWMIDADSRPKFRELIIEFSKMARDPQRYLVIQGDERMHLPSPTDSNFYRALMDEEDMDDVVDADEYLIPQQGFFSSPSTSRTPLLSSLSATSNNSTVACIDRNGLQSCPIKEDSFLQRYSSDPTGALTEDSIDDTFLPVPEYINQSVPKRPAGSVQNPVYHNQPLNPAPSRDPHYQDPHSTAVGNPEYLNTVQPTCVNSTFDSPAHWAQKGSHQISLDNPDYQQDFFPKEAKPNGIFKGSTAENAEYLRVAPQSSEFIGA

Row | IC50 (WT EGFR; [3]) | IC50 (EGFR [L858R/T790M]; [4]) | Compound | IC50 [1, 5] | IC50 [2, 6] | IC50 (WT EGFR) | IC50 (EGFR [L858R/T790M]) | IC50 [2, 7] | IC50 ([1]; A-431, 72 h, read-out: A431 (WT) IC50(nM))
1 | 0.001 to 0.05 µM | < 0.001 µM | C=CC(=O)Nc1cc(Nc2nccc(-c3cc4c5c(c3)nc(OC)n5CCC4)n2)c(OC)cc1N(C)CCN(C)C [Example 45, N-(2-((2-(dimethylamino)ethyl)(methyl)amino)-4-methoxy-5-((4-(2-methoxy-5,6-dihydro-4H-imidazo[4,5,1-ij]quinolin-8-yl)pyrimidin-2-yl)amino)phenyl)acrylamide] | 400 to 1000 nM | 10 to 100 nM | – | – | – | –
2 | > 0.1 µM | 0.05 to 0.1 µM | COc1cc(N2CCN(C)CC2)ccc1Nc1ncc(F)c(-c2cc(F)c3nc(C)c(C(C)C)n3c2)n1 [Example 59, 5-fluoro-4-(8-fluoro-3-isopropyl-2-methylimidazo[1,2-a]pyridine-6-yl)-N-(2-methoxy-4-(4-methylpiperazin-1-yl)phenyl)pyrimidin-2-amine] | > 1000 nM | > 1000 nM | – | – | – | –
3 | 0.001 to 0.05 µM | 0.001 to 0.05 µM | C=CC(=O)Nc1cc(Nc2nccc(-c3cc(F)c4nc(OC(C)C)n(C(C)C)c4c3)n2)c(OC)cc1N(C)CCN(C)C [Example 61, N-(2-((2-(dimethylamino)ethyl)(methyl)amino)-5-((4-(4-fluoro-2-isopropoxy-1-isopropyl-1H-benzo[d]imidazol-6-yl)pyrimidin-2-yl)amino)-4-methoxyphenyl)acrylamide] | 100 to 400 nM | 10 to 100 nM | – | – | – | –
4 | – | – | C=CC(=O)Nc1cc(Nc2nccc(-c3cc(F)c4nc(C)n(C(C)C)c4c3)n2)c(OC)cc1OCCOC [Example 10, N-(2-(2-methoxy-ethyl-oxy)-5-((4-(4-fluoro-1-isopropyl-2-methyl-1H-benzo[d]imidazole-6-yl)pyrimidin-2-yl)amino)-4-methoxyphenyl)acrylamide] | > 1000 nM | – | > 0.1 µM | 0.05 to 0.1 µM | 400 to 1000 nM | –
5 | 0.001 to 0.05 µM | 0.001 to 0.05 µM | C=CC(=O)Nc1cc(Nc2ncc(F)c(-c3cc(F)c4nc(C)c(C(=C)C)n4c3)n2)c(OC)cc1N(C)CCN(C)C [Example 56, N-(2-((2-(dimethylamino)ethyl)(methyl)amino)-5-((5-fluoro-4-(8-fluoro-2-methyl-3-(prop-1-en-2-yl)imidazo[1,2-a]pyridine-6-yl)pyrimidin-2-yl)amino)-4-methoxyphenyl)acrylamide] | > 1000 nM | 10 to 100 nM | – | – | – | –
6 | 0.001 to 0.05 µM | < 0.001 µM | C=CC(=O)Nc1cc(Nc2nccc(-c3cc(F)c4nc(C)n(C5CC5)c4c3)n2)c(OC)cc1N(C)CCN(C)C [Example 20, N-(5-((4-(1-cyclopropyl-4-fluoro-2-methyl-1H-benzo[d]imidazole-6-yl)pyrimidin-2-yl)amino)-2-((2-(dimethylamino)ethyl)(methyl)amino)-4-methoxyphenyl)acrylamide] | 100 to 400 nM | 10 to 100 nM | – | – | – | –
7 | 0.05 to 0.1 µM | 0.001 to 0.05 µM | C=CC(=O)Nc1cc(Nc2nccc(-c3ccc4nccn4n3)n2)c(OC)cc1N(C)CCN(C)C [Example 43, N-(2-((2-(dimethylamino)ethyl)(methyl)amino)-5-((4-(imidazo[1,2-b]pyridazine-6-yl)pyrimidin-2-yl)amino)-4-methoxyphenyl)acrylamide] | > 1000 nM | 100 to 400 nM | – | – | – | –
8 | > 0.1 µM | > 0.1 µM | COc1cc(N2CCN(C)CC2)ccc1Nc1ncc(F)c(-c2cc(F)c3nc(C)cn3c2)n1 [Example 58, 5-fluoro-4-(8-fluoro-2-methylimidazo[1,2-a]pyridine-6-yl)-N-(2-methoxy-4-(4-methylpiperazin-1-yl)phenyl)pyrimidin-2-amine] | > 1000 nM | > 1000 nM | – | – | – | –
9 | 0.001 to 0.05 µM | < 0.001 µM | C=CC(=O)Nc1cc(Nc2ncc(C)c(-c3cc(F)c4nc(C)n(C(C)C)c4c3)n2)c(OC)cc1N(C)CCN(C)C [Example 2, N-(2-((2-(dimethylamino)ethyl)(methyl)amino)-5-((5-methyl-4-(4-fluoro-1-isopropyl-2-methyl-1H-benzo[d]imidazole-6-yl)pyrimidin-2-yl)amino)-4-methoxyphenyl)acrylamide] | > 1000 nM | 10 to 100 nM | – | – | – | –
10 | 0.001 to 0.05 µM | 0.001 to 0.05 µM | C=CC(=O)Nc1cc(Nc2nccc(-c3cc(F)c4nc(C)oc4c3)n2)c(OC)cc1N(C)CCN(C)C [Example 32, N-(2-((2-(dimethylamino)ethyl)(methyl)amino)-5-((4-(4-fluoro-2-methylbenzo[d]oxazole-6-yl)pyrimidin-2-yl)amino)-4-methoxyphenyl)acrylamide] | > 1000 nM | 10 to 100 nM | – | – | – | –
11 | 0.001 to 0.05 µM | < 0.001 µM | C=CC(=O)Nc1cc(Nc2nccc(-c3cc(F)c4nc(OC)n(C(C)C)c4c3)n2)c(OC)cc1N(C)CCN(C)C [Example 6, N-(2-((2-(dimethylamino)ethyl)(methyl)amino)-5-((4-(4-fluoro-1-isopropyl-2-methoxy-1H-benzo[d]imidazole-6-yl)pyrimidin-2-yl)amino)-4-methoxyphenyl)acrylamide] | > 1000 nM | 10 to 100 nM | – | – | – | –
12 | 0.001 to 0.05 µM | 0.001 to 0.05 µM | C=CC(=O)Nc1cc(Nc2nccc(-c3ccc4oc(=O)n(C)c4c3)n2)c(OC)cc1N(C)CCN(C)C [Example 25, N-(2-((2-(dimethylamino)ethyl)(methyl)amino)-4-methoxy-5-((4-(3-methyl-2-oxo-2,3-di hydrobenzo[d]oxazole-5-yl)pyrimidin-2-yl)amino)phenyl)acrylamide] | > 1000 nM | 100 to 400 nM | – | – | – | –

Row | Compound | IC50 (WT EGFR; [3]) | IC50 (EGFR [L858R/T790M]; [4]) | IC50 [1, 5] | IC50 [2, 6] | IC50 (WT EGFR) | IC50 (EGFR [L858R/T790M]) | IC50 [2, 7] | IC50 ([1]; A-431, 72 h, read-out: A431 (WT) IC50(nM))
13 | C=CC(=O)Nc1cc(Nc2nccc(-c3cnc4nc(C)n(C(C)C)c4c3)n2)c(OC)cc1N(C)CCN(C)C [Example 22, N-(2-((2-(dimethylamino)ethyl)(methyl)amino)-5-((4-(1-isopropyl-2-methyl-1H-imidazo[4,5-b]pyridine-6-yl)pyrimidin-2-yl)amino)-4-methoxyphenyl)acrylamide] | 0.001 to 0.05 µM | 0.001 to 0.05 µM | – | – | – | – | 10 to 100 nM | 100 to 400 nM
14 | C=CC(=O)Nc1cc(Nc2nccc(-c3cc(F)c4nc(C)n(C(C)C)c4c3)n2)c(OC)cc1N1CCC(O)CC1 [Example 17, N-(2-(4-hydroxypiperidine-1-yl)-5-((4-(4-fluoro-1-isopropyl-2-methyl-1H-benzo[d]imidazole-6-yl)pyrimidin-2-yl)amino)-4-methoxyphenyl)acrylamide] | > 0.1 µM | 0.001 to 0.05 µM | > 1000 nM | – | – | – | 100 to 400 nM | –
15 | C=CC(=O)Nc1cc(Nc2nccc(-c3cc(OC(C)(C)C)c4nc(C)n(C(C)C)c4c3)n2)c(OC)cc1N(C)CCN(C)C [Example 30, N-(5-((4-(4-(tert-butoxy)-1-isopropyl-2-methyl-1H-benzo[d]imidazole-6-yl)pyrimidin-2-yl)amino)-2-((2-(dimethylamino)ethyl)(methyl)amino)-4-methoxyphenyl)acrylamide] | < 0.001 µM | < 0.001 µM | > 1000 nM | < 10 nM | – | – | – | –
16 | C=CC(=O)Nc1cc(Nc2nccc(-c3cc(F)c4nc(C)n(C(C)C)c4c3)n2)c(OCC)cc1N(C)CCN(C)C [Example 48, N-(2-((2-(dimethylamino)ethyl)(methyl)amino)-4-ethoxy-5-((4-(4-fluoro-1-isopropyl-2-methyl-1H-benzo[d]imidazole-6-yl)pyrimidin-2-yl)amino)phenyl)acrylamide] | 0.001 to 0.05 µM | < 0.001 µM | 400 to 1000 nM | – | – | – | < 10 nM | –
